Source: patent US12178981B2, “Drug administration method” (Takeda Pharmaceutical Company Limited, priority 2017, dated 2024)

Assays:
BBB = BBB permeation experiment of FITC dextran using rat (Example 6); conditions: ultrasound exposure using nano-bubble water of Reference Example 1
Description: The administration solution (0.4 mL) was injected into the rat tail vein at 1 mL/min using an injection tube and a needle of appropriate sizes (both sterilized disposable products). Using an ultrasound gene transfer apparatus (Sonitron GTS) manufactured by Nepa Gene Co., Ltd., exposure was performed for 60 sec at frequency 1 MHz and ultrasound intensity 2 W/cm^2 (n=3).
• fluorescence wavelength: 520 nm • excitation wavelength: 494 nm • flash number: 6 times

[1] = BBB permeation experiment of fluorescein using BBB Kit (Example 1); type: in vitro ADME; conditions: rat, 2 hr, read-out: permeability coefficient (Papp)
Description: (§1) Using this D-PBS, fluorescein (fluorescein sodium manufactured by Wako Pure Chemical Industries, Code No. 213-00092) was dissolved to prepare a fluorescein stock solution.
(§2) The permeability coefficient (Papp) was calculated from the measured fluorescein concentration, and the intracerebral transferability of fluorescein (BBB permeability) was calculated.
(§3) • fluorescence wavelength: 520 nm • excitation wavelength: 480 nm • flash number: 6 times

BBB Kit™ (RBT-24H) [2] = test: as above; type: in vitro ADME; conditions: nano-bubble water (PS80); ultrasound exposure at not less than 100 mW/cm^2
Description: as §1, §2, §3

[3] = BBB permeation experiment of fluorescein using BBB Kit, two nano-bubble waters (Example 4); type: in vitro ADME; conditions: rat, 2 hr, read-out: permeability coefficient (Papp)
Description: (§4) In addition, the fluorescein stock solution and the nano-bubble water prepared in Reference Example 2 were diluted with D-PBS such that the fluorescein concentration was 1 μM and nano-bubble density was 2×10^8 bubbles to prepare a culture solution B (volume: 500 μL) (n=2).
as §2

BBB Kit™ (RBT-24H) [4] = test: as above; type: in vitro ADME; conditions: culture medium A (Reference Example 1) and culture medium B (Reference Example 2); ultrasound exposure at not less than 100 mW/cm^2
Description: as §4, §2

brain tissue = conditions: ddY mice; nano-bubbles (about 400 nm) and 5-FU in combination; brain tissue exposed to ultrasound; cited from earlier work
[5] = control: fluorescein 1 μM in D-PBS without nano-bubble water

Question: With “fluorescein isothiocyanate dextran [FITC dextran]” as the compound, how does the “brain transferability compared with the control” value (BBB) read?
Answer: promotion of brain transferability

Question: Which Papp at 2 h, 1 μM [1, 5] does the source give for O=C1OC2(c3ccc(O)cc3Oc3cc(O)ccc32)c2ccccc21 [fluorescein, fluorescein sodium] here?
Answer: 0.574 ×10⁻⁶ cm/s

Question: And the Papp at 2 h, 1 μM ([1]; fluorescein 1 μM + nano-bubble water (PS80) 2×10^8 bubbles, ultrasound 100 mW/cm^2, 1 MHz, 10 sec)?
Answer: 11.2 ×10⁻⁶ cm/s

Question: And the Papp at 2 h, 1 μM ([1]; fluorescein 1 μM + nano-bubble water (PS80) 2×10^8 bubbles, ultrasound 250 mW/cm^2, 1 MHz, 10 sec)?
Answer: 10.6 ×10⁻⁶ cm/s

Question: What about the Papp at 2 h, 1 μM ([1]; fluorescein 1 μM + nano-bubble water (PS80) 2×10^8 bubbles, ultrasound 500 mW/cm^2, 1 MHz, 10 sec) of the same compound?
Answer: 12.7 ×10⁻⁶ cm/s

Question: And the “BBB permeability compared with the control” value (BBB Kit™ (RBT-24H) [2])?
Answer: clear promotion of BBB permeability

Question: And the Papp at 2 h, 1 μM [3, 5]?
Answer: 1.79 ×10⁻⁶ cm/s

Question: What about the Papp at 2 h, 1 μM ([3]; culture medium A (Reference Example 1 nano-bubble water, 2×10^8 bubbles), fluorescein 1 μM, ultrasound 100 mW/cm^2, 1 MHz, 10 sec) of the same compound?
Answer: 11.1 ×10⁻⁶ cm/s

Question: What about the “BBB permeability compared with the control” value (BBB Kit™ (RBT-24H) [4]) of the same compound?
Answer: clear promotion of BBB permeability

Question: Which “duration for which transfer into the brain was observed” value (brain tissue) does the source give for O=c1[nH]cc(F)c(=O)[nH]1 [5-FU, fluorouracil] here?
Answer: at least 24 hr
